Laboratory results from patent US7872026B2, “Ligand activators of the RAR receptors and pharmaceutical/cosmetic applications thereof” (Galderma Research & Development, priority 2003, dated 2011).

Tests used:
RAR gamma = target: T1, RAR gamma (Homo sapiens, UniProt P13631); assay: Transactivation test (Kd apparent), RAR gamma; format: cell-based; settings: HeLa cells stably transfected with ERE-βGlob-Luc-SV-Neo reporter and RAR γ ER-DBD-puro; luciferase; Schild regression vs reference antagonist; read-out: RAR gamma Kd app
T1 sequence (P13631 185-454 limits assumed): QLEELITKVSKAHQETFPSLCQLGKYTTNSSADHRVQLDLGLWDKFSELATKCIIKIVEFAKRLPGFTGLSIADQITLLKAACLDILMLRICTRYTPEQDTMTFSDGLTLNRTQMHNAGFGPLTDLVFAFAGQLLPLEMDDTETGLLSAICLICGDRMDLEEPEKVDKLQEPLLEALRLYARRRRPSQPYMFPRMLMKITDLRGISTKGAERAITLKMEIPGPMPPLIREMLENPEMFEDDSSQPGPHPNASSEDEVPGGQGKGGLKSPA
Experimental: (§1) The compounds according to the invention have activating properties on RAR-type receptors. This RAR-receptor-activating activity is measured in a test of transactivation by means of the dissociation constant Kdapp (apparent).
(§2) The activation of receptors with an agonist (activator) in HeLa cells leads to the expression of a reporter gene, luciferase, which, in the presence of a substrate, generates light. The activation of the receptors may thus be measured by quantifying the luminescence produced after incubating the cells in the presence of a reference agonist. The activating products displace the agonist from its site, thus preventing activation of the receptor. The activity is measured by quantifying the decrease in light produced. This measurement makes it possible to determine the activating activity of the compounds according to the invention.
(§3) In this study, a constant is determined which represents the affinity of the molecule for the receptor. Since this value can fluctuate depending on the basal activity and the expression of the receptor, it is referred to as the Kd apparent (KdApp).
(§4) To determine this constant, the cells are brought into contact with a concentration of the test product and a concentration of the reference antagonist, 4-(5,5-dimethyl-8-p-tolyl-5,6-dihydro-2-naphthalen-2-ylethynyl)benzoic acid. Measurements are also taken for the total agonist (4-[2-(5,5,8,8-tetramethyl-5,6,7,8-tetrahydro-2-naphthyl)propenyl]benzoic acid) and inverse agonist, 4-{(E)-3-[4-(4-tert-butylphenyl)-5,5,8,8-tetramethyl-5,6,7,8-tetrahydro-2-naphthyl]-3-oxopropenyl}benzoic acid, controls.
(§5) These crossed curves make it possible to determine the AC50 values (concentration at which 50% activation is observed) for the reference ligand at various concentrations of test product. These AC50 values are used to calculate the Schild regression by plotting a straight line corresponding to the Schild equation (“Quantitation in Receptor Pharmacology” Terry P. Kenakin, Receptors and Channels, 2001, 7, 371-385).
(§6) In the case of an agonist, an AC50 value (concentration that gives 50% of the activity) is calculated by plotting the curve of the product at the concentration of the reference ligand that gives 80% activation.
(§7) The HeLa cell lines used are stable transfectants containing the plasmids ERE-βGlob-Luc-SV-Neo (reporter gene) and RAR (α, β, γ) ER-DBD-puro. These cells are inoculated into 96-well plates at a rate of 10,000 cells per well in 100 μl of DMEM medium without phenol red, and supplemented with 10% defatted calf serum. The plates are then incubated at 37° C. and 7% CO2 for 4 hours.
(§8) The various dilutions of the test products, of the reference ligand (4-(5,5-dimethyl-8-p-tolyl-5,6-dihydro-2-naphthalen-2-ylethynyl)benzoic acid), of the 100% control (100 nM 4-[2-(5,5,8,8-tetramethyl-5,6,7,8-tetrahydro-2-naphthyl)propenyl]benzoic acid) and of the 0% control (500 nM 4-{(E)-3-[4-(4-tert-butylphenyl)-5,5,8,8-tetramethyl-5,6,7,8-tetrahydro-2-naphthyl]-3-oxopropenyl}benzoic acid) are added at a rate of 5 μl per well. The plates are then incubated for 18 hours at 37° C. and 7% CO2.
(§9) The culture medium is removed by turning over and 100 μl of a 1:1 PBS/luciferin mixture is added to each well. After 5 minutes, the plates are read using the luminescence reader.

RAR alpha = target: T2, RAR alpha (Homo sapiens, UniProt P10276); assay: Transactivation test (Kd apparent), RAR alpha; format: cell-based; settings: HeLa cells stably transfected with ERE-βGlob-Luc-SV-Neo reporter and RAR α ER-DBD-puro; luciferase; Schild regression vs reference antagonist; read-out: RAR alpha KD app
T2 sequence (P10276 183-417 limits assumed): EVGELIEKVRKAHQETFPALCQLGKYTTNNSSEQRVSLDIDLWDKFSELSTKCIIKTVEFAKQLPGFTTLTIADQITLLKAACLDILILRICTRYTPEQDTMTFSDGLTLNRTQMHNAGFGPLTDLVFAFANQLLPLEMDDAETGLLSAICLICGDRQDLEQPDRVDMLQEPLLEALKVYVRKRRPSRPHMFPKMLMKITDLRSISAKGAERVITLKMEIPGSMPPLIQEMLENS
Experimental: as §1, §2, §3, §4, §5, §6, §7, §8, §9

RAR beta = target: T3, RAR beta (Homo sapiens, UniProt P10826); assay: Transactivation test (Kd apparent), RAR beta; format: cell-based; settings: HeLa cells stably transfected with ERE-βGlob-Luc-SV-Neo reporter and RAR β ER-DBD-puro; luciferase; Schild regression vs reference antagonist; read-out: RAR beta Kd app
T3 sequence (P10826 183-417 limits assumed): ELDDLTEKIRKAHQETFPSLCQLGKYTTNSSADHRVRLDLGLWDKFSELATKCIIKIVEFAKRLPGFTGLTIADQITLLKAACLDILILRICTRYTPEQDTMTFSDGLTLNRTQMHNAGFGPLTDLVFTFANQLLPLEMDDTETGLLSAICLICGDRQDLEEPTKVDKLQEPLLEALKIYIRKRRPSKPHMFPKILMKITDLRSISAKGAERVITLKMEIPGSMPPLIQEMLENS
Experimental: as §1, §2, §3, §4, §5, §6, §7, §8, §9

melting point	Kd (RAR gamma)	Kd (RAR beta)	SMILES	Kd (RAR alpha)
120 °C	–	–	CCCNCCCOc1ccc(-c2ccc(C(=O)OCC)cc2)cc1-c1ccc2c(c1)C(C)(C)CCC2(C)C [Compound 56, Ethyl 4′-(3-propylaminopropoxy)-3′-(5,5,8,8-tetramethyl-5,6,7,8-tetrahydronaphth-2-yl)biphenyl-4-carboxylate]	–
–	30 nM	–	CNCCCOc1ccc(-c2ccc(C(=O)O)cc2)cc1-c1ccc2c(c1)C(C)(C)CCC2(C)C [Compound 61, 4′-(3-Methylaminopropoxy)-3′-(5,5,8,8-tetramethyl-5,6,7,8-tetrahydronaphth-2-yl)biphenyl-4-carboxylic acid]	–
148 °C	–	–	CCNCCCOc1ccc(-c2ccc(C(=O)OCC)cc2)cc1-c1ccc2c(c1)C(C)(C)CCC2(C)C [Compound 62, Ethyl 4′-(3-ethylaminopropoxy)-3′-(5,5,8,8-tetramethyl-5,6,7,8-tetrahydronaphth-2-yl)biphenyl-4-carboxylate]	–
141 °C	–	–	CCOC(=O)c1ccc(-c2ccc(OCCCNC)c(-c3ccc4c(c3)C(C)(C)CCC4(C)C)c2)cc1 [Compound 60, Ethyl 4′-(3-methylaminopropoxy)-3′-(5,5,8,8-tetramethyl-5,6,7,8-tetrahydronaphth-2-yl)biphenyl-4-carboxylate]	–
–	250 nM	500 nM	CC1(C)CCC(C)(C)c2cc(-c3cc(-c4ccc(C(=O)O)cc4)ccc3OCCCCCNC3CC3)ccc21 [Compound 69, 4′-(5-Cyclopropylaminopentyloxy)-3′-(5,5,8,8-tetramethyl-5,6,7,8-tetrahydronaphth-2-yl)biphenyl-4-carboxylic acid]	2000 nM
–	120 nM	2000 nM	CC1(C)CCC(C)(C)c2cc(-c3cc(-c4ccc(C(=O)O)cc4)ccc3OCCCCCN)ccc21 [Compound 73, 4′-(5-Aminopentyloxy)-3′-(5,5,8,8-tetramethyl-5,6,7,8-tetrahydronaphth-2-yl)biphenyl-4-carboxylic acid]	2000 nM
–	4 nM	60 nM	CC1(C)CCC(C)(C)c2cc(-c3cc(-c4ccc(C(=O)O)cc4)ccc3OCCNC3CC3)ccc21 [Compound 67, 4′-(2-Cyclopropylaminoethoxy)-3′-(5,5,8,8-tetramethyl-5,6,7,8-tetrahydronaphth-2-yl)biphenyl-4-carboxylic acid]	1000 nM
–	250 nM	–	CCNCCCOc1ccc(-c2ccc(C(=O)O)cc2)cc1-c1ccc2c(c1)C(C)(C)CCC2(C)C [Compound 63, 4′-(3-Ethylaminopropoxy)-3′-(5,5,8,8-tetramethyl-5,6,7,8-tetrahydronaphth-2-yl)biphenyl-4-carboxylic acid]	–

More lines, now with the values behind:

SMILES	melting point	Kd (RAR gamma)	Kd (RAR beta)	Kd (RAR alpha)
CCOC(=O)c1ccc(-c2ccc(OCCCNC3CC3)c(-c3ccc4c(c3)C(C)(C)CCC4(C)C)c2)cc1 [Compound 50, Ethyl 4′-(3-cyclopropylaminopropoxy)-3′-(5,5,8,8-tetramethyl-5,6,7,8-tetrahydronaphth-2-yl)biphenyl-4-carboxylate]	141 °C	–	–	–
CCCCNCCCOc1ccc(-c2ccc(C(=O)OCC)cc2)cc1-c1ccc2c(c1)C(C)(C)CCC2(C)C [Compound 52, Ethyl 4′-(3-butylaminopropoxy)-3′-(5,5,8,8-tetramethyl-5,6,7,8-tetrahydronaphth-2-yl)biphenyl-4-carboxylate]	175 °C	–	–	–
CC(C)NCCCCOc1ccc(-c2ccc(C(=O)O)cc2)cc1-c1ccc2c(c1)C(C)(C)CCC2(C)C [Compound 1, 4′-(4-Isopropylaminobutoxy)-3′-(5,5,8,8-tetramethyl-5,6,7,8-tetrahydronaphth-2-yl)biphenyl-4-carboxylic acid]	–	15 nM	500 nM	1000 nM
CC1(C)CCC(C)(C)c2cc(-c3cc(-c4ccc(C(=O)O)cc4)ccc3OCCCCN)ccc21 [Compound 75, 4′-(4-Aminobutoxy)-3′-(5,5,8,8-tetramethyl-5,6,7,8-tetrahydronaphth-2-yl)biphenyl-4-carboxylic acid]	–	60 nM	2000 nM	8000 nM
CC1(C)CCC(C)(C)c2cc(-c3cc(-c4ccc(C(=O)O)cc4)ccc3OCCCCNC3CC3)ccc21 [Compound 59, 4′-(4-Cyclopropylaminobutoxy)-3′-(5,5,8,8-tetramethyl-5,6,7,8-tetrahydronaphth-2-yl)biphenyl-4-carboxylic acid]	–	1000 nM	4000 nM	8000 nM
CC(C)NCCOc1ccc(-c2ccc(C(=O)O)cc2)cc1-c1ccc2c(c1)C(C)(C)CCC2(C)C [Compound 12, 4′-(2-Isopropylaminoethoxy)-3′-(5,5,8,8-tetramethyl-5,6,7,8-tetrahydronaphth-2-yl)biphenyl-4-carboxylic acid]	–	120 nM	4000 nM	–
CC1(C)CCC(C)(C)c2cc(-c3cc(-c4ccc(C(=O)O)cc4)ccc3OCCCN)ccc21 [Compound 65, 4′-(3-Aminopropoxy)-3′-(5,5,8,8-tetramethyl-5,6,7,8-tetrahydronaphth-2-yl)biphenyl-4-carboxylic acid]	–	8 nM	–	–
